Laboratory results reported in patent US7622128B2, “Porphyromonas gingivalis 1435/1449 LPS as an immune modulator” (priority 2005, dated 2009).

System: mouse bone marrow cells
Assay: Activation of bone marrow cells from TLR knockout mice (intracellular TNF-α staining, FACS)
Assay type: cell-based
Details: TLR2−/−, TLR4−/− and TLR2/4−/− cells
Experimental: The ability of this P. gingivalis LPS preparation to activate mouse bone marrow cells obtained from TLR2^−/−, TLR4^−/−, and TLR2/4^−/− knockout mice was examined to determine if endogenous TLR2 and TLR4 were utilized. Activation was determined by intracellular TNF-α staining and fluorescence-activated cell sorter analysis.

Pam3CSK4
TLR usage in bone marrow cells of knockout mice: utilized their respective cognate TLR
